Patent publication US20210386367A1, “DEVICES AND SYSTEMS FOR GASTROINTESTINAL MICROBIOME DETECTION AND MANIPULATION” (Progenity, Inc., priority 2018, published 2021)
Values after ≈ are worked out from the molar mass of the structure shown. Where two headings read alike, the source gives them in different places.

Key:
Format in all cases: cell-based
[1] = tested on: Streptococcus agalactiae; test: Broth microdilution MIC, 20 clinical isolates; details: for Mode: modal MIC
Protocol: (§1) Minimal inhibitory concentration (MIC) values were determined by broth microdilution or agar dilution in accordance with guidelines from the Clinical and Laboratory Standards Institute (CLSI; (1) “Methods for Dilution Antimicrobial Susceptibility Tests for Bacteria That Grow Aerobically; Approved Standard; 11th ed.” CLSI standard M07-A11, 2018; (2) “Performance Standards for Antimicrobial Susceptibility Testing; Twenty-Eighth Informational Supplement,” CLSI document M100-S28, 2018; and (3) “Methods for Antimicrobial Susceptibility Testing of Anaerobic Bacteria; Approved Standard—Eighth Edition,” CLSI document M11-A8, 2012).
(§2) Tested aerobically by broth microdilution: • Escherichia coli, n=50 • Klebsiella spp., n=50 • Pseudomonas aeruginosa, n=50 • Streptococcus spp., n=50 • Staphylococcus aureus, n=50 • Enterococcus faecalis, n=50 • Enterobacter aerogenes, n=50 • Proteus mirabilis, n=50
(§3) Broth microdilution testing of aerobic bacteria was conducted in cation-adjusted Mueller Hinton broth (MHBII). For testing streptococci, lysed horse blood (LHB) was added to MHBII broth at a final concentration of 3%. Where LHB was used, it was added after filtering.
(§4) Broth microdilution susceptibility testing in 96-well microplates was conducted in accordance with CLSI methods (1) and (2). Automated liquid handlers were used to conduct serial dilutions and liquid transfers, including the Multidrop 384 (Labsystems, Helsinki, Finland), Biomek 2000, and the Biomek FX (Beckman Coulter, Fullerton, Calif.). All wells in columns 2 through 12 of a standard 96-well microdilution plate (Costar 3795) were filled with 150 μL of the appropriate diluent. Then, 300 μL of the test agents were added to the wells of column 1 of the plates at 100× the highest final concentration to be tested. Serial two-fold dilutions were made across the rows through column 11 using the Biomek 2000. The wells of column 12 contained no drug and served as the growth control wells. This plate served as the “mother plate” from which MIC assay plates or “daughter plates” were made.
(§5) The daughter plates were loaded with 190 μL per well of the appropriate medium using the Multidrop 384. The daughter plates were created using the Biomek FX which transferred 2 μL of drug solution from each well of a mother plate to each corresponding well of the daughter plate in a single step. A standardized inoculum of each test organism was prepared per CLSI methods (1) to equal a 0.5 McFarland standard, followed by a dilution of 1:20 for aerobes and 1:10 for anaerobes. The plates were then inoculated with 10 μL of the diluted inoculum using the Biomek 2000 from low to high drug concentration, resulting in a final concentration of approximately 5×10^5 CFU/mL per well. An un-inoculated plate was incubated in parallel for each medium for the purpose of assessing solubility of the drug in the test media.
(§6) Inoculated plates were stacked 3 or 4 high, covered with a sterile lid on the top plate, placed into boxes with CO2 planchets (streptococci) or plastic bags (all other isolates). Plates were incubated at 35° C. for 16-24 hr in ambient air for aerobes or for 42-48 hr in the anaerobic environment of the Bactron II anaerobe chamber (Sheldon Manufacturing Co.; Cornelius, Oreg.). Following incubation, the microplates were removed from the incubator and viewed from the bottom using a plate viewer. The MIC values were read and recorded as the lowest concentration of drug that inhibited visible growth of the organism as per CLSI methods (1) and (2).

[2] = tested on: Streptococcus pyogenes clinical isolates; test: MIC distribution against clinical isolates
Source text: (§7) As used herein, “minimum inhibitory concentration” or “MIC” refers to the lowest concentration of an antimicrobial agent, for example, an antimicrobial agent as described herein, required to inhibit the growth of an organism. […] “MIC90” represents the MIC value at which ≥90% of the strains within a test population are inhibited; the 90th percentile.
(§8) Many susceptibility testing methods are known in the art and can be used as described herein (see, e.g., Jorgensen and Ferraro (2009) Clinical Infectious Diseases 49:1749-1755; and Maurer et al. (2017) Infectious Disease Reports 9:6839; the entire contents of each of the foregoing are incorporated herein by reference). For example, antimicrobial susceptibility can be determined using conventional culture based methods such as the broth or agar dilution test. In these dilution tests, the bacterial isolate of interest is inoculated onto different media that include serial dilutions of an antimicrobial agent, and incubated under appropriate conditions (e.g., overnight at 37° C.) to allow for growth to occur. Following the incubation period, the media is examined to determine bacterial growth. The lowest concentration of antibiotic that prevents growth represents the minimal inhibitory concentration (MIC). Broth dilution tests can be miniaturized and mechanized allowing for reproducibility and high throughput.

[3] = tested on: Viridans group Streptococci clinical isolates; test: MIC distribution against clinical isolates; details: 15 Viridans group Streptococci isolates
Source text: as §7, §8

[4] = tested on: Streptococcus pyogenes; test: Broth microdilution MIC, 19 clinical isolates
Protocol: as §1, §2, §3, §4, §5, §6

[5] = tested on: Viridans group Streptococcus; test: Broth microdilution MIC, 15 clinical isolates; details: for Mode: modal MIC
Protocol: as §1, §2, §3, §4, §5, §6

[6] = tested on: Streptococcus spp.; test: Broth microdilution MIC, 54 clinical isolates; details: for Mode: modal MIC
Protocol: as §1, §2, §3, §4, §5, §6

[7] = tested on: Staphylococcus aureus; test: Broth microdilution MIC, 50 clinical isolates (28 MRSA)
Protocol: as §1, §2, §3, §4, §5, §6

[8] = tested on: Enterococcus faecalis; test: Broth microdilution MIC, 50 clinical isolates
Protocol: as §1, §2, §3, §4, §5, §6

[9] = 20 Streptococcus agalactiae clinical isolates
[10] = MIC 0.008 μg/mL, 19 S. pyogenes isolates
[11] = MIC ≤0.004 μg/mL, 19 S. pyogenes isolates
[12] = 15 Viridans group Streptococci clinical isolates
[13] = 15 Viridans group Streptococci clinical isolates, MXF by FDA breakpoints
[14] = 54 Streptococcus spp. clinical isolates
[15] = 54 Streptococcus spp. clinical isolates, MXF by FDA breakpoints
[16] = MIC 0.03 μg/mL, 19 S. pyogenes isolates
[17] = MIC 0.06 μg/mL, 19 S. pyogenes isolates

## Penicillin
[1]; [9]
  MIC50: 0.03 µg/mL
  MIC90: 0.03 µg/mL
  MIC range: 0.015 to 0.06 µg/mL
  Mode: 0.03 µg/mL
[1]; 20 Streptococcus agalactiae clinical isolates, MXF by FDA breakpoints
  % S: 100%
[2]
  Cumulative percentage of isolates inhibited at MIC: 100.0%
  Number of test isolates at MIC: 1
[2]; [10]
  Cumulative percentage of isolates inhibited at MIC: 94.7%
  Number of test isolates at MIC: 8
[2]; [11]
  Cumulative percentage of isolates inhibited at MIC: 52.6%
  Number of test isolates at MIC: 10
[3]; MIC 0.008 μg/mL
  Cumulative percentage of isolates inhibited at MIC: 6.7%
  Number of test isolates at MIC: 1
[3]; MIC 1 μg/mL
  Cumulative percentage of isolates inhibited at MIC: 100.0%
[4]
  % S: 100%
  MIC50: <0.004 µg/mL
  MIC90: 0.008 µg/mL
  MIC range: ≤0.004-0.03^ μg/mL
  Mode: <0.004 µg/mL
[5]; [12]
  MIC50: 0.03 µg/mL
  MIC90: 1 µg/mL
  MIC range: 0.008 to 1 µg/mL
  Mode: 0.015 µg/mL
[5]; [13]
  % I: 40% ^
  % S: 60%
[6]; [14]
  MIC50: 0.03 µg/mL
  MIC90: 0.25 µg/mL
  MIC range: ≤0.004-1^ μg/mL
  Mode: 0.03 µg/mL
[6]; [15]
  % I: 11% ^
  % S: 89%

## piperacillin/tazobactam [piperacillin-tazobactam]
[7]
  MIC50: 8 µg/mL
  MIC90: 64 µg/mL
  Mode: 64 µg/mL
[7]; FDA breakpoints
  % R: 48% ^1
  % S: 52% ^1
[1]; [9]
  MIC50: 0.25 µg/mL
  MIC90: 0.25 µg/mL
  MIC range: 0.12 to 0.25 µg/mL
  Mode: 0.25 µg/mL
[2]; [16]
  Cumulative percentage of isolates inhibited at MIC: 21.1%
  Number of test isolates at MIC: 4
[2]; [17]
  Cumulative percentage of isolates inhibited at MIC: 89.5%
  Number of test isolates at MIC: 13
[2]; MIC […], 19 S. pyogenes isolates
  Number of test isolates at MIC: 1
[3]; MIC 0.015 μg/mL
  Cumulative percentage of isolates inhibited at MIC: 6.7%
  Number of test isolates at MIC: 1
[3]; MIC 0.03 μg/mL
  Cumulative percentage of isolates inhibited at MIC: 26.7%
  Number of test isolates at MIC: 3
[3]; MIC 0.06 μg/mL
  Cumulative percentage of isolates inhibited at MIC: 46.7%
  Number of test isolates at MIC: 3
[3]; MIC 1 μg/mL
  Cumulative percentage of isolates inhibited at MIC: 66.7%
  Number of test isolates at MIC: 1
[3]; MIC 2 μg/mL
  Cumulative percentage of isolates inhibited at MIC: 80.0%
  Number of test isolates at MIC: 2
[3]; MIC 4 μg/mL
  Cumulative percentage of isolates inhibited at MIC: 100.0%
  Number of test isolates at MIC: 3
[3]; MIC […]
  Number of test isolates at MIC: 1
[4]
  MIC50: 0.06 µg/mL
  MIC90: 0.12 µg/mL
  MIC range: 0.03 to 0.25 µg/mL
  Mode: 0.06 µg/mL
[5]; [12]
  MIC50: 0.12 µg/mL
  MIC90: 4 µg/mL
  MIC range: 0.015 to 4 µg/mL
  Mode: 0.06 µg/mL
[6]; [14]
  MIC50: 0.12 µg/mL
  MIC90: 1 µg/mL
  MIC range: 0.015 to 4 µg/mL
  Mode: 0.25 µg/mL
[8]
  MIC50: 4 µg/mL
  MIC90: 8 µg/mL
  Mode: 4 µg/mL

## CO[C@H]1/C=C/O[C@@]2(C)Oc3c(C)c(O)c4c(O)c(c5c(nc6cc(C)ccn65)c4c3C2=O)NC(=O)/C(C)=C\C=C\[C@H](C)[C@H](O)[C@@H](C)[C@@H](O)[C@@H](C)[C@H](OC(C)=O)[C@@H]1C [rifaximin]
[7]
  MIC50: 0.015 µg/mL (≈ 0.0191 µM)
  MIC90: 0.06 µg/mL (≈ 0.0763 µM)
  MIC range: 0.008 to 32 µg/mL
  Mode: 0.015 µg/mL
  relative activity among drugs tested: most active drug tested
[1]
  MIC50: 0.12 µg/mL (≈ 0.153 µM)
  MIC90: 0.12 µg/mL (≈ 0.153 µM)
[1]; [9]
  MIC50: 0.12 µg/mL (≈ 0.153 µM)
  MIC90: 0.12 µg/mL (≈ 0.153 µM)
  MIC range: 0.12 to 0.25 µg/mL
  Mode: 0.12 µg/mL
[2]; [17]
  Number of test isolates at MIC: 6
[3]; MIC 0.06 μg/mL
  Number of test isolates at MIC: 6
[4]
  MIC50: 0.06 µg/mL (≈ 0.0763 µM)
  MIC90: 0.25 µg/mL (≈ 0.318 µM)
  MIC range: 0.015 to 0.25 µg/mL
  Mode: 0.06 µg/mL
[5]
  MIC50: 0.06 µg/mL (≈ 0.0763 µM)
  MIC90: 0.12 µg/mL (≈ 0.153 µM)
[5]; [12]
  MIC50: 0.06 µg/mL (≈ 0.0763 µM)
  MIC90: 0.12 µg/mL (≈ 0.153 µM)
  MIC range: 0.015 to 0.1 µg/mL
  Mode: 0.06 µg/mL
[6]
  MIC50: 0.12 µg/mL (≈ 0.153 µM)
  MIC90: 0.25 µg/mL (≈ 0.318 µM)
[6]; [14]
  MIC50: 0.12 µg/mL (≈ 0.153 µM)
  MIC90: 0.25 µg/mL (≈ 0.318 µM)
  MIC range: 0.015 to 0.3 µg/mL
  Mode: 0.12 µg/mL
[8]
  MIC50: 2 µg/mL (≈ 2.54 µM)
  MIC90: 4 µg/mL (≈ 5.09 µM)
  Mode: 1 µg/mL
  relative activity among drugs tested: slightly more active than meropenem
